Results on four compounds are retold here after ChEMBL document CHEMBL3351647, “Organochalcogen compounds from glycerol: synthesis of new antioxidants” (Bioorg Med Chem, 2014).

Holding throughout (type): physicochemical
Series [1] can be described thus: Antioxidant activity assessed as ABTS radical scavenging activity at 500 uM by spectrophotometry relative to control.
Series [2] can be described thus: Antioxidant activity assessed as ABTS radical scavenging activity at 50 uM by spectrophotometry relative to control.
Series [3] can be described thus: Antioxidant activity assessed as […] scavenging activity by measuring NaNO2 at 100 uM by spectrophotometry.
Series [4] is described as follows: Antioxidant activity assessed as inhibition of Fe2+/ascorbic acid-induced linoleic acid peroxidation at 500 uM by spectrophotometry relative to control. Also on record: scale not given: the % may be the effect or the level left.
Series [5] can be described thus: Antioxidant activity assessed as ABTS radical scavenging activity at 100 uM by spectrophotometry relative to control.
Series [6] is described as follows: Antioxidant activity assessed as ABTS radical scavenging activity at 10 uM by spectrophotometry relative to control.
Series [7] in a line: Antioxidant activity assessed as […] scavenging activity by measuring NaNO2 at 500 uM by spectrophotometry.
Series [8] is described as follows: Antioxidant activity assessed as inhibition of Fe2+/ascorbic acid-induced linoleic acid peroxidation at 5 uM by spectrophotometry relative to control. Also on record: scale not given: the % may be the effect or the level left.
A short description of series [9]: Antioxidant activity assessed as DPPH radical scavenging activity at 500 uM by spectrophotometry relative to control.
Series [10] in a line: Antioxidant activity assessed as DPPH radical scavenging activity at 50 uM by spectrophotometry relative to control. For orientation: The DPPH test is a chemical assay of radical scavenging.
Series [11] can be described thus: Antioxidant activity assessed as inhibition of Fe2+/ascorbic acid-induced linoleic acid peroxidation at 10 uM by spectrophotometry relative to control. Also on record: scale not given: the % may be the effect or the level left.
The nature of series [12]: Antioxidant activity assessed as hydroxyl radical scavenging activity.
Series [13] in a line: Antioxidant activity assessed as ABTS radical scavenging activity at 25 uM by spectrophotometry relative to control.
The nature of series [14]: Antioxidant activity assessed as inhibition of Fe2+/ascorbic acid-induced linoleic acid peroxidation at 100 uM by spectrophotometry relative to control. Also on record: scale not given: the % may be the effect or the level left.
Series [15] can be described thus: Antioxidant activity assessed as […] scavenging activity by measuring NaNO2 at 50 uM by spectrophotometry.
Series [16] in a line: Antioxidant activity assessed as inhibition of Fe2+/ascorbic acid-induced linoleic acid peroxidation at 50 uM by spectrophotometry relative to control. Also on record: scale not given: the % may be the effect or the level left.
Series [17] in a line: Antioxidant activity assessed as DPPH radical scavenging activity at 10 uM by spectrophotometry relative to control.
Series [18] can be described thus: Antioxidant activity assessed as DPPH radical scavenging activity at 100 uM by spectrophotometry relative to control.
The nature of series [19]: Antioxidant activity assessed as inhibition of Fe2+/ascorbic acid-induced linoleic acid peroxidation at 1 uM by spectrophotometry relative to control. Also on record: scale not given: the % may be the effect or the level left.
Series [20] is described as follows: Antioxidant activity assessed as […] scavenging activity by measuring NaNO2 at 10 uM by spectrophotometry.
Series [21] is described as follows: Antioxidant activity assessed as ferric ion reducing activity at 10 to 500 uM after 40 mins by spectrophotometry relative to control.
Series [22] in a line: Antioxidant activity assessed as inhibition of Fe2+/ascorbic acid-induced linoleic acid peroxidation by spectrophotometry relative to control.
Series [23] in a line: Antioxidant activity assessed as superoxide dismutase-like activity.
A short description of series [24]: Antioxidant activity assessed as ABTS radical scavenging activity at 5 uM by spectrophotometry relative to control.
A short description of series [25]: Antioxidant activity assessed as ABTS radical scavenging activity by spectrophotometry relative to control.
The nature of series [26]: Antioxidant activity assessed as DPPH radical scavenging activity by spectrophotometry relative to control.
A short description of series [27]: Antioxidant activity assessed as ABTS radical scavenging activity at 1 uM by spectrophotometry relative to control.

Turning to `CC1(C)OCC(CO)O1` (stereo not given), the Activity in [1] was 9.84%; in [2] it was 0.85%; in series [3], 52.22 µM; in series [4], 76.4%; in [5] it was 1.7%; in [6] it was 0%. In addition, the Activity in [7] is 54.47 µM; in series [8], 66.2%; in [9], 0.98%; in [10], 0.98%; in series [11] it was 79.89%; in [12] it was “Not Active”. Besides, the Activity in [13] came out at 0%; in series [14], 72.48%; in [15], 55.45 µM; in [16], 72.35%; in series [17], 0.54%; in series [18] it was 0.98%. The Activity is 72.67% in [19], 56.6 µM in [20] and “Not Active” in [21].

For the compound `CC1(C)OCC(C[Te]c2ccccc2)O1` (stereo not given), the Activity is 99.9% in [1]; 90.64% in series [2]; 54.93 µM in [3]; 20.6% in series [4]; 99.5% in series [5]; 22.72% in series [6]. Also, the Activity in [7] was 44.49 µM; in series [8], 66.29%; in [9], 77.86%; in [10], 11.08%; in series [23], “Not Active”; in series [24], 12.04%. Also, the Activity in [11] is 57.39%; in series [12] it was “Not Active”; in [13] it was 53.41%; in [14], 31.66%; in series [15] it was 55.95 µM; in series [27], 2.18%. Also, the Activity in series [16] was 43.34%; in series [17], 3.57%; in series [18], 22.55%; in [19], 79.46%; in series [20] it was 64.13 µM; in series [21], “Active”. The IC50 in [22] turned out to be 24.5 µM; in series [25] it was 24.5 µM; in [26], 309 µM.

`CC1(C)OCC(C[Se]c2ccccc2)O1` (stereo not given): the Activity was 4.75% in [1]; 1.19% in series [2]; 51.95 µM in series [3]; 81.22% in series [4]; 1.15% in series [5]; 0% in series [6]. Besides, the Activity in series [7] was 49.65 µM; in series [8], 94.34%; in [9], 1.3%; in [10], 0.63%; in series [11], 86.97%; in series [12], “Not Active”. Besides, the Activity amounted to 0% in [13]; 86.55% in series [14]; 52.5 µM in series [15]; 89.97% in [16]; 0.98% in [17]; 0.63% in series [18]. Besides, the Activity in series [19] was 88.37%; in series [20] it was 54.43 µM; in [21], “Not Active”.

For the compound `CC1(C)OCC(CSc2ccccc2)O1` (stereo not given), the Activity in [1] was determined as 0.08%; in series [2], 0.15%; in series [3], 50.48 µM; in series [4] it was 72.46%; in [5], 0.36%; in series [6] it was 0.47%. The Activity in series [7] was 49.68 µM; in series [8], 87.79%; in series [9], 1.65%; in series [10], 1.07%; in series [11], 76.51%; in [12] it was “Not Active”. The Activity in [13] came out at 0%; in series [14], 74.88%; in series [15] it was 50.91 µM; in series [16], 76.51%; in series [17], 0.01%; in series [18], 0.5%. The results for the Activity in [19], in [20] and in series [21] were 86.7%, 49.59 µM and “Not Active”, respectively.

The IC50 is the concentration needed to halve the response being measured.
